{"source": "patent US20070269843A1", "about": "“Diagnostic Assays That Use Mycobacteriophages” (priority 2004, published 2007)", "key": {"[1]": {"conditions": "cited from earlier work"}, "[2]": {"system": "M. tuberculosis type strain ATCC 27294", "conditions": "cited from earlier work"}, "M. tuberculosis": {"system": "M. tuberculosis", "experiment": "FPTB plaque assay after exposure to CB-18 with carry-over into the infection buffer (Example 3)", "format": "cell-based, Mycobacterium tuberculosis", "conditions": "1 mM CB-18, 90 minutes at 37° C.; replicates 1-3, tubes a, b", "protocol": "To examine the effects of both exposing M. tuberculosis to CB-18, and having CB-18 carried over into the infection buffer, the following experiment was performed: A 0.5 MacFarland stock of M. tuberculosis was manufactured as described by Thornton, C. G., et al, Jour. Clin. Microbiol. 36:2004-2013 (1998), and a 0.5 ml portions were transferred to quadruplicate 50 ml conical tubes (FIG. 3). One pair of tubes simply contained 50 mM Tris-HCl pH 7.5 @ 25° C., 66 mM NaCl, and 0.025% NALC, while the other pair of tubes contained the same buffer supplemented with 1 mM CB-18. All tubes were incubated for 90 minutes at 37° C. and then diluted with sterile water to a final volume of 50 ml. In those tubes without CB-18 present, duplicate 250 μl portions were added directly to 1 ml of FPTB nutrient broth. From those tubes that contained CB-18, triplicate 250 μl portions were added to 50 mM Tris-HCl pH 7.5 @ 25° C., 66 mM NaCl, 2 mM CaCl2 buffer. All tubes were then immediately subjected to analysis using the FPTB plaque assay (i.e., the plaque assay was performed without pre-culture)."}, "[3]": {"system": "Mycobacterium tuberculosis ATCC 27294", "experiment": "FASTPlaqueTB (FPTB) plaque assay after timed exposure of M. tuberculosis to CB-18 (Example 1)", "format": "cell-based", "conditions": "for Plaque formation following infection in Tris buffer and no pre-culture / Plaque formation following overnight pre-culture in FPTB nutrient broth: duplicates a, b", "protocol": "In an effort to establish the effect of exposure to CB-18 on the M. tuberculosis type strain ATCC 27294, and any relationship of such an effect to time, the following experiment was performed using the FASTPlaqueTB™ (FPTB) assay manufactured by Biotec Laboratories Ltd (Ipswich, Suffolk, U.K.): A 0.5 MacFarland stock of M. tuberculosis was manufactured as described by Thornton, C. G., et al, Jour. Clin. Microbiol. 36:2004-2013 (1998), and a 1 ml portion were transferred to a 50 ml conical tubes containing 50 mM Tris-HCl pH 7.5 @ 25° C., 66 mM NaCl, 1 mM CB-18, and 0.025% N-acetyl-L-cysteine (NALC). From this tube was taken duplicate 500 μl aliquots at 0, 30, 60, 120, and 180 minutes and immediately serially diluted 400-fold to form two dilution series. In the first series (FIG. 1a), serial dilutions were made in nutrient broth (i.e., FPTB broth) provided by the manufacturer. In the second series (FIG. 1b), serial dilutions were made in a 50 mM Tris-HCl pH 7.5 @ 25° C., 66 mM NaCl buffer that had been supplemented with calcium chloride (CaCl2) to a final concentration of 2 mM.\nThe first series of time point-dilutions were then incubated at 37° C. overnight in FPTB broth prior to being assayed with the FPTB plaque assay. The second series of time point-dilutions were immediately subjected to analysis using the FPTB plaque assay."}, "[4]": {"system": "Mycobacterium tuberculosis ATCC 27294", "experiment": "FPTB plaque assay with CB-18 present during infection (Example 2)", "format": "cell-based", "conditions": "for Plaque formation following infection in Tris buffer and no pre-culture / Plaque formation following overnight pre-culture in FPTB nutrient broth: duplicates a, b; for Concentration present during infection that does not interfere with the assay: M. tuberculosis ATCC 27294"}, "[5]": {"system": "mycobacteriophage D-29 in M. tuberculosis", "conditions": "cited from earlier work"}, "[6]": {"conditions": "1 mM CB-18, time of exposure 0 min"}, "[7]": {"conditions": "1 mM CB-18, time of exposure 30 min"}, "[8]": {"conditions": "1 mM CB-18, time of exposure 60 min"}, "[9]": {"conditions": "1 mM CB-18, time of exposure 120 min"}, "[10]": {"conditions": "1 mM CB-18, time of exposure 180 min"}}, "note": "Where “and” joins values, the source holds several entries; their conditions need not be identical. Equal values may be shown once. Where a name gives a salt, the structure may show the parent alone. Read-outs that look alike come from different tables or passages of the source.", "data": [{"smiles": "NC(=O)CNCCS(=O)(=O)O", "note": "[ACES, N-(2-Acetamido)-2-aminoethanesulfonic acid]", "values": [{"measurement": "pKa", "setting": "[1]", "result": 6.78}]}, {"smiles": "NC(=O)CN(CC(=O)O)CC(=O)O", "note": "[ADA, N-(2-Acetamido)iminodiacetic acid]", "values": [{"measurement": "pKa", "setting": "[1]", "result": 6.59}]}, {"smiles": "CCCCCCCCCCCCCCCCCC[N+](C)(C)CCCC(=O)[O-]", "note": "[CB-18, N-(3-carboxypropyl)-N,N-dimethyl-1-octadecanaminium, inner salt]", "values": [{"measurement": "Growth characteristics in culture media", "setting": "[2]; CB-18 present at 20 μg/ml in the culture media", "result": "significantly affected"}, {"measurement": "Tuberculocidal activity", "setting": "[2]; time-dependent killing", "result": "has tuberculocidal activity"}, {"measurement": "Plaque formation following processing in CB-18, no pre-culture, and infection in Tris-CaCl2 buffer", "setting": "M. tuberculosis", "result": ">300"}, {"measurement": "Plaque formation following infection in Tris buffer and no pre-culture", "setting": "[3]; [6]", "result": "132 and 121"}, {"measurement": "Plaque formation following overnight pre-culture in FPTB nutrient broth", "setting": "[3]; [6]", "result": ">300"}, {"measurement": "Plaque formation following infection in Tris buffer and no pre-culture", "setting": "[3]; [7]", "result": "145 and 167"}, {"measurement": "Plaque formation following overnight pre-culture in FPTB nutrient broth", "setting": "[3]; [7]", "result": ">300"}, {"measurement": "Plaque formation following infection in Tris buffer and no pre-culture", "setting": "[3]; [8]", "result": "100 and 90"}, {"measurement": "Plaque formation following overnight pre-culture in FPTB nutrient broth", "setting": "[3]; [8]", "result": ">300"}, {"measurement": "Plaque formation following infection in Tris buffer and no pre-culture", "setting": "[3]; [9]", "result": "155 and 140"}, {"measurement": "Plaque formation following overnight pre-culture in FPTB nutrient broth", "setting": "[3]; [9]", "result": ">300"}, {"measurement": "Plaque formation following infection in Tris buffer and no pre-culture", "setting": "[3]; [10]", "result": "213 and 221"}, {"measurement": "Plaque formation following overnight pre-culture in FPTB nutrient broth", "setting": "[3]; [10]", "result": ">300"}, {"measurement": "Effect of exposure on D-29 mycobacteriophage plaque assay", "setting": "[3]; 1 mM CB-18 for 30, 60, 120, and 180 minutes", "result": "no deleterious effects"}, {"measurement": "Plaque formation following infection in Tris buffer and no pre-culture", "setting": "[4]; CB-18 5 μg/ml present during infection", "result": "171 and 191"}, {"measurement": "Plaque formation following overnight pre-culture in FPTB nutrient broth", "setting": "[4]; CB-18 5 μg/ml", "result": ">300"}, {"measurement": "Plaque formation following infection in Tris buffer and no pre-culture", "setting": "[4]; CB-18 10 μg/ml present during infection", "result": "204 and 186"}, {"measurement": "Plaque formation following overnight pre-culture in FPTB nutrient broth", "setting": "[4]; CB-18 10 μg/ml", "result": ">300"}, {"measurement": "Plaque formation following infection in Tris buffer and no pre-culture", "setting": "[4]; CB-18 20 μg/ml present during infection", "result": "181 and 198"}, {"measurement": "Plaque formation following overnight pre-culture in FPTB nutrient broth", "setting": "[4]; CB-18 20 μg/ml", "result": ">300"}, {"measurement": "Plaque formation following overnight pre-culture in FPTB nutrient broth", "setting": "[4]; CB-18 40 μg/ml", "result": ">300"}, {"measurement": "Concentration present during infection that does not interfere with the assay", "setting": "[4]", "result": "≤ 20", "unit": "µg/mL"}, {"measurement": "Concentration present during infection that does not interfere with the assay", "setting": "[4]; conversion of 20 μg/ml", "result": "≤ 52", "unit": "µM"}]}, {"smiles": "O=S(=O)(O)CCCCN1CCN(CCO)CC1", "note": "[HEPBS, N-(2-Hydroxyethyl)piperazine-N′-(4-butanesulfonic acid)]", "values": [{"measurement": "pKa", "setting": "[1]", "result": 8.30}]}, {"smiles": "O=S(=O)(O)CCCCN1CCOCC1", "note": "[MOBS, 4-(N-Morpholino)butanesulfonic acid]", "values": [{"measurement": "pKa", "setting": "[1]", "result": 7.60}]}, {"smiles": "O=S(=O)(O)CCN1CCN(CCS(=O)(=O)O)CC1", "note": "[PIPES, piperazine-1,4-bis(2-ethanesulfonic acid)]", "values": [{"measurement": "pKa", "setting": "[1]", "result": 6.76}]}, {"smiles": "O=S(=O)(O)CC(O)CN1CCN(CC(O)CS(=O)(=O)O)CC1", "note": "(stereo not shown) [POPSO, piperazine-N,N′-bis(2-hydroxypropanesulfonic acid)]", "values": [{"measurement": "pKa", "setting": "[1]", "result": 7.80}]}, {"smiles": "CCCCCCCC/C=C\\CCCCCCCC(=O)OCCOCC(OCCO)C1OCC(OCCO)C1OCCO", "note": "(stereo not shown) [Tween 80]", "values": [{"measurement": "Concentration above which propagation of mycobacteriophage D-29 in M. tuberculosis is interfered with", "setting": "[5]", "result": "above 0.0012%"}, {"measurement": "Concentration above which propagation of mycobacteriophage D-29 in M. tuberculosis is interfered with", "setting": "[5]; printed as conversion of […]", "result": "> 1", "unit": "EM"}]}]}
